Read-outs that look alike come from different tables or passages of the source.
Key:
human 5-HT6 receptor = human 5-HT6 receptor (Homo sapiens (Human), UniProt P50406); assay: radioligand binding assay (SPA format), [N-methyl-3H]-LSD; conditions: read-out: human 5HT6 Ki, human 5-HT6 receptor membranes, 10 nM [3H]-LSD
5HT6 receptor = 5HT6 receptor (Rattus norvegicus (Rat), UniProt P31388); assay: ex vivo receptor occupancy measurements; type: in vivo; conditions: oral dosing at 30 mg/kg, Sprague-Dawley rats
Procedure: This table illustrates representative compounds tested for 5HT6 affinity in the human binding assay. […] Example 158 had 42% occupancy of the 5HT6 receptor after oral dosing at 30 mg/kg using ex vivo receptor occupancy measurements in Sprague-Dawley rats.

Chain of human 5-HT6 receptor (P50406 whole entry): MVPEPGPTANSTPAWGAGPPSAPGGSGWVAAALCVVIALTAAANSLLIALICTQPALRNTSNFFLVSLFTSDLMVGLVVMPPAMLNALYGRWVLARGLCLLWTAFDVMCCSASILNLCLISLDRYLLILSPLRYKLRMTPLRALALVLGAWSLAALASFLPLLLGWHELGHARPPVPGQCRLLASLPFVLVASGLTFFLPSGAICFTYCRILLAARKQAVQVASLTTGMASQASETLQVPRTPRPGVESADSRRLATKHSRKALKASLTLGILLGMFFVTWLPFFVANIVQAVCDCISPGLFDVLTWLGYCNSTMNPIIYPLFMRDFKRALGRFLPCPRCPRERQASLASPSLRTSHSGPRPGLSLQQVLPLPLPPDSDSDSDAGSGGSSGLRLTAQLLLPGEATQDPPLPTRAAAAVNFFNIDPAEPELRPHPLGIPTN
Chain of 5HT6 receptor (P31388 whole entry): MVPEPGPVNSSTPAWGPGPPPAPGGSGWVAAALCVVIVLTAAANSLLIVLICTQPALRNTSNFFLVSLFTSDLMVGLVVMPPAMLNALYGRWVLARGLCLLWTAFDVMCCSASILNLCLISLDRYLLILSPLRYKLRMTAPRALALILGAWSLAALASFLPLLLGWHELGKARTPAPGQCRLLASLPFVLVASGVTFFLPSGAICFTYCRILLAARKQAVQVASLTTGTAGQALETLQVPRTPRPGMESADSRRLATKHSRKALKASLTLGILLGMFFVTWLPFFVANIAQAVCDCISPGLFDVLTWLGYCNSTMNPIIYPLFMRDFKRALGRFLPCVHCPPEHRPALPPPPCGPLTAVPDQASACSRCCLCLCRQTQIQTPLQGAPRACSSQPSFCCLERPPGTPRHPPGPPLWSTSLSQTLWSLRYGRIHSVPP

SMILES	melting point	Ki (human 5-HT6 receptor; hydrochloride)	Ki (human 5-HT6 receptor)	receptor occupancy at 30 mg/kg (5HT6 receptor)
Cc1cn(S(=O)(=O)c2ccc3c(c2)c2c(n3C)CC3CCC2N3)c2ccccc12.Cl (stereo not shown) [Example 68, 2-[1-(3-Methyl)-indole]sulfonyl-5-methyl-5,6,7,8,9,10-hexahydro-7,10-epiminocyclohepta[b]indole hydrochloride]	212 to 215 °C	0.0012 µM	–	–
CN1C2CCC1c1c(n(C)c3ccc(S(=O)(=O)c4ccsc4)cc13)C2.Cl (stereo not shown) [Example 70, 2-(3-thienyl)sulfonyl-5-methyl-5,6,7,8,9,10-hexahydro-7,10-N-methyl-epiminocyclohepta[b]indole hydrochloride]	238 to 240 °C	–	0.0082 µM	–
Cc1cc(S(=O)(=O)c2ccccc2)cc2c3c(n(C)c12)CC1CCC3N1.Cl (stereo not shown) [Example 71, 2-Phenylsulfonyl-4,5-dimethyl-5,6,7,8,9,10-hexahydro-7,10-epiminocyclohepta[b]indole hydrochloride]	244 to 248 °C	–	0.0033 µM	–
Cc1cc(S(=O)(=O)c2cccc(C(F)(F)F)c2)cc2c3c(n(C)c12)CC1CCC3N1.Cl (stereo not shown) [Example 75, 2-(3-Trifluoromethyl-phenyl)sulfonyl-4,5-dimethyl-5,6,7,8,9,10-hexahydro-7,10-epiminocyclohepta[b]indole hydrochloride]	227 to 229 °C	–	0.0036 µM	–
Cc1cc(S(=O)(=O)c2cccc(OC(F)(F)F)c2)cc2c3c(n(C)c12)CC1CCC3N1.Cl (stereo not shown) [Example 76, 2-(3-Trifluoromethoxy-phenyl)sulfonyl-4,5-dimethyl-5,6,7,8,9,10-hexahydro-7,10-epiminocyclohepta[b]indole hydrochloride]	220 to 222 °C	–	0.0069 µM	–
Cc1cc(S(=O)(=O)c2ccc(N)cc2)cc2c3c(n(C)c12)CC1CCC3N1.Cl (stereo not shown) [Example 77, 2-(4-Amino-phenyl)sulfonyl-4,5-dimethyl-5,6,7,8,9,10-hexahydro-7,10-epiminocyclohepta[b]indole hydrochloride]	244 to 246 °C	–	0.0049 µM	–
Cc1cc(S(=O)(=O)c2cncnc2)cc2c3c(n(C)c12)CC1CCC3N1.Cl (stereo not shown) [Example 78, 2-(5-Pyrimidine)sulfonyl-4,5-dimethyl-5,6,7,8,9,10-hexahydro-7,10-epiminocyclohepta[b]indole]	226 to 228 °C	–	0.794 µM	–
Cl.Cn1c2c(c3cc(S(=O)(=O)c4ccccc4)cc(F)c31)C1CCC(C2)N1 (stereo not shown) [Example 81, 2-(Phenylsulfonyl)-4-fluoro-5-methyl-5,6,7,8,9,10-hexahydro-7,10-epiminocyclohepta[b]indole hydrochloride]	251 to 256 °C (dec.)	–	0.013 µM	–
Cl.Cn1c2c(c3cc(S(=O)(=O)c4ccccc4)cc(Cl)c31)C1CCC(C2)N1 (stereo not shown) [Example 82, 2-Phenylsulfonyl-4-chloro-5-methyl-5,6,7,8,9,10-hexahydro-7,10-epiminocyclohepta[b]indole hydrochloride]	258 to 264 °C (dec.)	–	0.022 µM	–
CCOc1cc(S(=O)(=O)c2ccccc2)cc2c3c(n(C)c12)CC1CCC3N1.Cl (stereo not shown) [Example 84, 2-Phenylsulfonyl-4-ethoxy-5-methyl-5,6,7,8,9,10-hexahydro-7,10-epiminocyclohepta[b]indole hydrochloride]	182 to 184 °C	0.001 µM	–	–
Cl.Cn1c2c(c3cc(S(=O)(=O)c4ccccc4)cc(OCc4ccccc4)c31)C1CCC(C2)N1 (stereo not shown) [Example 86, 2-Phenylsulfonyl-4-benzyloxy-5-methyl-5,6,7,8,9,10-hexahydro-7,10-epiminocyclohepta[b]indole hydrochloride]	178 to 180 °C	–	0.014 µM	–
CC(C)n1c2c(c3cc(S(=O)(=O)c4ccccc4)ccc31)C1CCC(C2)N1.Cl (stereo not shown) [Example 87, 2-Phenylsulfonyl-5-isopropyl-5,6,7,8,9,10-hexahydro-7,10-epiminocyclohepta[b]indole hydrochloride]	260 to 265 °C	0.35 µM	–	–
Cl.O=S(=O)(c1ccccc1)c1ccc2c(c1)c1c(n2-c2ccccc2)CC2CCC1N2 (stereo not shown) [Example 88, 2-Phenylsulfonyl-5-phenyl-5,6,7,8,9,10-hexahydro-7,10-epiminocyclohepta[b]indole hydrochloride]	195 to 200 °C	–	0.35 µM	–
Cl.O=S(=O)(c1ccccc1)c1ccc2c(c1)c1c(n2CCO)CC2CCC1N2 (stereo not shown) [Example 89, 2-Phenylsulfonyl-5-(2-hydroxy)ethyl-5,6,7,8,9,10-hexahydro-7,10-epiminocyclohepta[b]indole hydrochloride]	185 to 190 °C	–	0.432 µM	–
CCn1c2c(c3cc(S(=O)(=O)c4ccccc4)ccc31)C1CCC(C2)N1.Cl (stereo not shown) [Example 90, 2-Phenylsulfonyl-5-ethyl-5,6,7,8,9,10-hexahydro-7,10-epiminocyclohepta[b]indole hydrochloride]	200 to 204 °C (dec.)	–	0.052 µM	–
Cl.Cn1c2c(c3ccc(S(=O)(=O)c4ccccc4)cc31)C1CCC(C2)N1 (stereo not shown) [Example 91, 3-Phenylsulfonyl-5-methyl-5,6,7,8,9,10-hexahydro-7,10-epiminocyclohepta[b]indole hydrochloride]	252 to 256 °C	–	0.115 µM	–
Cn1c2c(c3cc(S(=O)(=O)c4cccc(Cl)c4)ccc31)C1CCC(C2)N1 (stereo not shown) [Example 158]	–	–	0.0019 µM	42%
